Measured values reported in patent US9737525B2, “Small molecule activators of NRF2 pathway” (The General Hospital Corporation, priority 2013, dated 2017).

Key:
NRF2 responsive genes = assay: Microarray gene expression profiling in mutant HTT ST14A cells (Case III); type: cell-based, rat; conditions: 5 μM 24 hours vs untreated
Protocol: RNA was extracted from HD mutant and wild type ST14A cells, differentiated for 24 hours and treated with vehicle (DMSO) or with 5 μM MIND4, using the RNeasy kit (Qiagen). Labeled cRNAs were prepared and hybridized to Affymetrix GeneChip Rat Genome 230 2.0 microarrays according to the manufacturer's instructions. Affymetrix CEL (intensity) files from hybridized arrays were imported into the Partek Genome Suite, Partek Incorporated, for biostatistical analysis. 2 CEL files were used for each experimental condition: wild type (WT) untreated, MIND4 treated (WT/MIND4), mutant (MTT) untreated, and mutant (MTT) MIND4-terated (MTT/MIND4). Two-way ANOVA was performed with interaction term included and three of the evaluated contrasts were of interest (Case I, II, and III). Gene lists were created for each of the three contrasts using the thresholds of absolute value of fold-change>1.5 and p-value with False Discovery Rate (FDR)<0.05. The lengths of the gene lists are for Case I (DP)-1765 genes, for Case II (TP)-1797 genes, and for Case III (MDDP)-268 genes. These three gene lists were imported into Ingenuity IPA for pathway and network analyses. These analyses provided Networks (graph structures of molecules connected by relationships in the IPA knowledgebase), Functions (lists of molecules grouped together due to their contribution to a biological function) and Canonical Pathways (molecules and relationships that participate in a biological pathway). Scores are assigned according to the probability that the genes from the user's list might appear in the function or pathway by chance (right-tailed Fisher's Exact Test).
To determine whether MIND4 might engage targets other than SIRT2, the gene expression changes in treated versus untreated mutant HTT and wild type ST14A cells were evaluated using an approach described previously (Luthi-Carter et al., 2010). RNA from rat embryonic striatal (ST14A) cells stably expressing a 546 amino acid HTT fragment containing either an expanded (128Q) or wild type (26Q) repeat was extracted following treatment with 5 μM MIND4 for 24 hours was extracted and run on Affymetrix rat microarrays (Affy GeneChip Rat Genome 230 2.0 array) as described above in General Methods. Two replicates for each of the experimental conditions were imported into Partek Genome Suite for biostatistical analysis. Genes showing significant differential expression were identified by ANOVA, for three contrasts, resulting in three gene-lists: mutant HD (MT) vs. wild type (WT)=Case I (Disease Phenotype); MT/MIND4 treated vs. WT=Case II (Treatment Phenotype), and MT/MIND4 treated vs. MT=Case III (Mutant Drug-Dependent Phenotype). These represented transcriptional alterations in MT compared to WT cells (Case I), in MT treated compared to WT cells (Case II), and in MT treated cells compared to untreated MT cells (Case III). The lists, Cases I-III, were then imported into Ingenuity Pathway Analysis (IPA—Ingenuity® Systems, www.ingenuity.com) for pathway and network analyses.

[1] = test system: mutant HTT exon 1 fragment; assay: Mutant HTT exon 1 levels in R6/2 mice (HTRF); type: in vivo, mouse; conditions: 50 mg/kG daily for 3 weeks
Protocol: In effects of brain-permeable MIND4 on clearance misfloded mutant HTT fragments have been tested in HD mouse model R6/2, expressing mutant HTT exon 1 fragment. Symptomatic HD mice (5 week old) have been treated with MIND4 at 50 mg/kG daily dose for 3 weeks. Treatment effects on levels of mutant exon 1 HTT have been measured by a highly sensitive HTRF method (FIG. 17C) as described (Mosckovitch-Lopatin, 2010; Chopra, 2012).

[2] = test system: Drosophila expressing mutant Htt exon 1; assay: Drosophila model of HD, photoreceptor neuron (rhabdomere) survival; type: in vivo; conditions: 10 μM, treated vs. untreated flies, day 7 after eclosion
Protocol: Compound treatment of Drosophila HD model and efficacy analysis of MIND4 effects on photoreceptor neurons was performed as described (Steffan et al., 2001; Pallos et al., 2008). Drosophila models have been important in the genetic identification of pathological and neuroprotective mechanisms as well as for testing therapeutic candidates in HD (Marsh et al., 2003). In wild type flies, seven rhabdomeres (photoreceptor neurons) are visible in the adult eye, whereas chronic expression of mHTTex1 causes progressive degeneration of these neurons, detected as a reduction of rhabdomere number. Rhabdomeres were counted on day 7 after eclosion in animals treated with varying doses of MIND4. The indicated numbers of flies were scored for each condition (n) with the number of ommatidia scored indicated in parentheses. Trial 1: DMSO=11(449); MIND4 1 μM=3(112); MIND4 10 μM=9(337); […]=9(364). […]
MIND4 was tested for its potential efficacy by monitoring the degeneration of photoreceptor neurons in the eyes of Drosophila expressing expanded repeat HTT exon 1 protein in all neurons beginning during embryogenesis (Steffan et al., 2001). […] Chronic expression of mutant HTT causes progressive degeneration of these neurons, detected as a reduction of rhabdomeres number. Rhabdomeres were counted on day 7 after eclosion in animals treated with varying doses of MIND4. […]

Structure (SMILES): O=[N+]([O-])c1ccc(Sc2nnc(COc3ccccc3)n2-c2ccccc2)c2ncccc12 [MIND4, 5-nitro-8-{[5-(phenoxymethyl)-4-phenyl-4H-1,2,4-triazol-3-yl]thio}quinoline]
- Fold Increase, AOX1 (NRF2 responsive genes): 3.18 fold
- Fold Increase, CAT (NRF2 responsive genes): 1.72 fold
- Fold Increase, DNAJA4 (NRF2 responsive genes): 1.53 fold
- Fold Increase, DNAJB9 (NRF2 responsive genes): 1.63 fold
- Fold Increase, FRA1 (NRF2 responsive genes): 3.17 fold
- Fold Increase, GCLC (NRF2 responsive genes): 2.11 fold
- Fold Increase, GCLM (NRF2 responsive genes): 3.32 fold
- Fold Increase, GSR (NRF2 responsive genes): 2.14 fold
- Fold Increase, GSTA3 (NRF2 responsive genes): 20.09 fold
- Fold Increase, GSTM5 (NRF2 responsive genes): 1.89 fold
- Fold Increase, GSTP1 (NRF2 responsive genes): 2.21 fold
- Fold Increase, GSTT2/GSTT2B (NRF2 responsive genes): 1.96 fold
- Fold Increase, HERPUD1 (NRF2 responsive genes): 1.55 fold
- Fold Increase, HO-1 (NRF2 responsive genes): 6.14 fold
- Fold Increase, KEAP1 (NRF2 responsive genes): 1.53 fold
- Fold Increase, MAFF (NRF2 responsive genes): 1.75 fold
- Fold Increase, MGST1 (NRF2 responsive genes): 1.84 fold
- Fold Increase, MGST2 (NRF2 responsive genes): 2.94 fold
- Fold Increase, MRP4 (NRF2 responsive genes): 3.37 fold
- Fold Increase, NQO1 (NRF2 responsive genes): 7.34 fold
- Fold Increase, SQSTM1 (NRF2 responsive genes): 1.82 fold
- Fold Increase, TRXR1 (NRF2 responsive genes): 3.31 fold
- Mutant HTT exon 1 fragments in cortex [1]: Significant reduction of mutant HTT exon I fragments
- Relative rescue of photoreceptor neurons, Trial 1 [2]: 22.6%
- Relative rescue of photoreceptor neurons, Trial 2 [2]: 20.7%
